The values below come from paper PMC7504721, “Targeting the Initiator Protease of the Classical Pathway of Complement Using Fragment-Based Drug Discovery” (Molecules, 2020).

This test deals with T1, full-length C1r (Homo sapiens, UniProt P00736).
T1 construct: purchased Complement Technology (CompTech)
T1 sequence (P00736 18-463 limits assumed): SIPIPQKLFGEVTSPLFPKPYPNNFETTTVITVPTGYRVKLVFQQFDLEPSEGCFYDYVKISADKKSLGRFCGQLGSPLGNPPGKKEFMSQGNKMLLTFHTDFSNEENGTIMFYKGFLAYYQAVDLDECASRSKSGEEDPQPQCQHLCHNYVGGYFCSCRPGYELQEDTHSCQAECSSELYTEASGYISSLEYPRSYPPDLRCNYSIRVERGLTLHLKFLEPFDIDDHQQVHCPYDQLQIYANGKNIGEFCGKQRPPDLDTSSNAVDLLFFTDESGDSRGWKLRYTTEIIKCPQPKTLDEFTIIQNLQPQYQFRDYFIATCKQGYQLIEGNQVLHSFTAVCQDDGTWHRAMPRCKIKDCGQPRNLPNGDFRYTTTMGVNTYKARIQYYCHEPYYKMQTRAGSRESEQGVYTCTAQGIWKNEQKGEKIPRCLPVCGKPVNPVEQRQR
T1 sequence (P00736 464-705 limits assumed): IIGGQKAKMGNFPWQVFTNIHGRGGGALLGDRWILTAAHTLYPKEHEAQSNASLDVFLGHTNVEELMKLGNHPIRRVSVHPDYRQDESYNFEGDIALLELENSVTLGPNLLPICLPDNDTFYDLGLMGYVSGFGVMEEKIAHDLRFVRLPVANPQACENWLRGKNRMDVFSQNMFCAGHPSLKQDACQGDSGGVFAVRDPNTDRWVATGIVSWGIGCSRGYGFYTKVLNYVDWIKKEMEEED
The test is described as follows: SPR dose-dependent binding, steady-state affinity. To be noted: for Kd: 1:1 steady-state binding model, mean ± S.D. from three independent injection series, 25 °C; for Ligand efficiency (LE): LE = ΔG/number of non-hydrogen atoms, ΔG = -RT x ln KD,C1r, using KD values of Fig. 3. How it is done:
All SPR experiments were carried out using a Biacore T200 (GE Healthcare, Chicago, IL, USA) at 25 °C. For all experiments, a running buffer (HBS-T) of 20 mM HEPES (pH 7.3), 140 mM NaCl, 0.005% (v/v) Tween-20, 5% DMSO (v/v) was used. For each experiment, DMSO calibration curves ranging from 4% to 5.5% DMSO (v/v) were collected at the beginning, end, and every 50 cycles throughout the duration of the experiment. All experiments were performed using HC1500M sensor chips (Xantec, Duesseldorf, Germany). In total, 10 sensor chips and 16 ligand immobilized surfaces were created over the course of this study (detailed in Table S2). In all cases, C1r proteins were immobilized onto chip surfaces using amine-coupling chemistry with 1-ethyl-3-(3-dimethylaminopropyl)-carbodiimide) (EDC), N-hydroxysuccinimide (NHS), followed by ethanolamine. Briefly, 100 mM of EDC and NHS were mixed and injected to activate the chip surface followed by the C1r protein ligand captured at a defined resonance unit (RU) level, followed by reaction quenching with 100 mM ethanolamine pH 8.5. Flow cell 1 was always used as a reference cell (no ligand), unless otherwise noted. All sensorgrams were reference and blank subtracted and analyzed using T200 Evaluation Software (GE Healthcare, Chicago, IL, USA).
To further evaluate hit compounds from the initial SPR screen, dose-dependent SPR binding assays were carried out. Three replicate flow cells were used containing both low and high immobilization densities of C1r (see Table S2). Hit compounds were tested for dose-dependent binding to full-length C1r using a compound concentration range of 7.8–500 µM. T200 evaluation software was used to calculate steady-state affinities for each compound by fitting sensorgrams from each variable concentration injection dataset using a 1:1 Langmuir model of interaction constrained by a theoretical experimental binding response based on the mol. wt. of each compound and derived as stated above. KD values are reported as the mean ± the standard deviation from at least three independent measurements.

Turning to `CN(C)c1cc(N2CCCC(N)C2)ncn1` (centres unmarked) [CMP-1611], the Kd worked out at 480 µM and the “Ligand efficiency (LE)” value was determined as 0.28.
In the same order, the values of `COCc1nc(-c2ccc(OC3CNC3)cc2)no1` [CMP-1696] are 670 µM and 0.22.
Turning to `N=C(N)c1ccc2cc(OC(=O)c3ccc(N=C(N)N)cc3)ccc2c1` [Futhan, reference compound], the affinity, expressed as Kd, was 11 µM.

Usually Kd stands for the free concentration of one partner at which half of the binding sites on the other are occupied at equilibrium, for simple one-to-one binding. Read a high Kd as a looser complex.
